Legend:
Assay in all cases: relative viability (nuclei count vs DMSO), 5 days (fraction); higher = more cells survive
Veliparib + Alpelisib = compound: C[C@]1(c2nc3c(C(N)=O)cccc3[nH]2)CCCN1 [Veliparib] + Cc1nc(NC(=O)N2CCC[C@H]2C(N)=O)sc1-c1ccnc(C(C)(C)C(F)(F)F)c1 [Alpelisib] (partner 2 µM)
Procedure, shortened: (§1)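 Nuclei were stained with Hoechst during a one-step fixation (final 0.05% Triton X-100, 1% formaldehyde, 1 ug/ml Hoechst) carried out 5 days after dosing, then counted on 4× images. The cells, lung cancer lines in 1536-well plates, had been dosed by pin tool the day after seeding with one drug alone or a fixed anchor-drug dose plus five library-drug doses (not always all listed) in √10 steps. Relative viability is the nuclei count in treated wells divided by that in vehicle wells, and each value is the median of duplicate plates.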

[1] = compound: COC1=CC=C(C=C1)CN2C=CC3=C2C=C(C=C3)C(=O)NO + COc1cccc2cc(-c3nc([C@H]4CC[C@H](C(=O)O)CC4)n4ncnc(N)c34)[nH]c12 [OSI-027] (partner 0.5 µM)
Procedure, shortened: as §1

[2] = compound: COC1=CC=C(C=C1)CN2C=CC3=C2C=C(C=C3)C(=O)NO + Cc1cc(Nc2cc(N3CCN(C)CC3)nc(Sc3ccc(NC(=O)C4CC4)cc3)n2)n[nH]1 [Tozasertib] (partner 0.1 µM)
Procedure, shortened: as §1

[3] = compound: COC1=CC=C(C=C1)CN2C=CC3=C2C=C(C=C3)C(=O)NO + NC(=O)Nc1cc(-c2cccc(F)c2)sc1C(=O)N[C@H]1CCCNC1 [AZD7762] (partner 0.2 µM)
Procedure, shortened: as §1

Row | Cell Line | relative viability (Veliparib + Alpelisib; first compound 0.02 µM) | relative viability (Veliparib + Alpelisib; first compound 0.06325 µM) | relative viability (Veliparib + Alpelisib; first compound 0.2 µM) | relative viability (Veliparib + Alpelisib; first compound 0.6325 µM) | relative viability (Veliparib + Alpelisib; first compound 2 µM) | relative viability ([1]; first compound 0.08 µM) | relative viability ([1]; first compound 0.253 µM) | relative viability ([1]; first compound 0.8 µM) | relative viability ([1]; first compound 2.53 µM) | relative viability ([1]; first compound 8 µM) | relative viability ([2]; first compound 0.08 µM) | relative viability ([2]; first compound 0.253 µM) | relative viability ([2]; first compound 0.8 µM) | relative viability ([2]; first compound 2.53 µM) | relative viability ([2]; first compound 8 µM) | relative viability ([3]; first compound 0.08 µM) | relative viability ([3]; first compound 0.253 µM) | relative viability ([3]; first compound 0.8 µM) | relative viability ([3]; first compound 2.53 µM) | relative viability ([3]; first compound 8 µM)
1 | COR-L23 | 0.784 | 0.733 | 0.874 | 0.597 | 0.786 | 0.647 | 0.829 | 0.795 | 0.772 | 0.686 | 0.167 | 0.197 | 0.203 | 0.201 | 0.169 | – | – | – | – | –
2 | EBC-1 | 0.882 | 0.77 | 0.849 | 0.654 | 0.858 | – | – | – | – | – | – | – | – | – | – | – | – | – | – | –
3 | NCI-H1650 | – | – | – | – | – | 0.586 | 0.682 | 0.714 | 0.568 | 0.542 | 0.391 | 0.379 | 0.447 | 0.416 | 0.326 | – | – | – | – | –
4 | NCI-H1792 | 0.678 | 0.592 | 0.799 | 0.65 | 0.645 | 0.722 | 0.811 | 0.745 | 0.802 | 0.616 | – | – | – | – | – | 0.755 | 0.792 | 0.716 | 0.592 | 0.55
5 | NCI-H2009 | 1.19 | 0.994 | 1.17 | 1.15 | 1.23 | 0.647 | 0.714 | 0.619 | 0.618 | 0.491 | 0.65 | 0.514 | 0.741 | 0.73 | 0.64 | – | – | – | – | –
6 | NCI-H522 | – | – | – | – | – | – | 0.611 | 0.746 | 0.733 | 0.718 | – | 0.589 | 0.53 | 0.613 | 0.545 | – | 0.792 | 1.06 | 0.951 | 0.612
7 | COR-L 105 | 1.12 | 1.1 | 1.09 | 0.862 | 1.11 | 0.524 | 0.738 | 0.753 | 0.626 | 0.445 | 0.351 | 0.355 | 0.328 | 0.416 | 0.319 | – | – | – | – | –
8 | A549 | 0.697 | 0.686 | 0.75 | 0.688 | 0.796 | – | – | – | – | – | – | – | – | – | – | – | – | – | – | –
9 | NCI-H1563 | 0.981 | 0.965 | 1 | 0.826 | 1.04 | 0.626 | 0.812 | 0.739 | 0.724 | 0.712 | – | – | – | – | – | – | – | – | – | –
10 | NCI-H2342 | – | – | – | – | – | 0.61 | 0.66 | 0.603 | 0.57 | 0.655 | 0.497 | 0.701 | 0.544 | 0.531 | 0.47 | 0.475 | 0.44 | 0.468 | 0.379 | 0.389
11 | NCI-H2228 | 0.818 | 0.688 | 0.832 | 0.623 | 0.678 | – | 0.536 | 0.594 | 0.729 | 0.473 | – | 0.229 | 0.291 | 0.228 | 0.185 | – | – | – | – | –
12 | NCI-H1623 | – | – | – | – | – | 0.435 | 0.727 | 0.468 | 0.43 | 0.376 | 0.407 | 0.411 | 0.421 | 0.42 | 0.436 | – | – | – | – | –
13 | SW 900 | – | – | – | – | – | 0.559 | 0.533 | 0.63 | 0.622 | 0.447 | 0.558 | 0.647 | 0.574 | 0.612 | 0.489 | 0.646 | 0.596 | 0.579 | 0.597 | 0.403
14 | NCI-H1299 | 1.04 | 0.992 | 1.03 | 0.985 | 1.05 | – | – | – | – | – | – | – | – | – | – | – | – | – | – | –
15 | Calu-6 | 1.15 | 0.909 | 1.01 | 0.988 | 1.02 | – | – | – | – | – | – | – | – | – | – | – | – | – | – | –

— the supplement of paper PMC10307832
